{"source": "paper PMC6017357", "about": "“In Vitro Inhibitory Effects of Synthetic Cannabinoid EAM-2201 on Cytochrome P450 and UDP-Glucuronosyltransferase Enzyme Activities in Human Liver Microsomes” (Molecules : A Journal of Synthetic Chemistry and Natural …, 2018)", "molecular_target": "T1, UGT2B7 (Homo sapiens, UniProt P16662)", "T1 construct": "ultrapooled human liver microsomes (0.2 mg/mL), 5 mM UDPGA; from tissue; host or cells: ultrapooled human liver microsomes", "T1 sequence (P16662 24-529)": "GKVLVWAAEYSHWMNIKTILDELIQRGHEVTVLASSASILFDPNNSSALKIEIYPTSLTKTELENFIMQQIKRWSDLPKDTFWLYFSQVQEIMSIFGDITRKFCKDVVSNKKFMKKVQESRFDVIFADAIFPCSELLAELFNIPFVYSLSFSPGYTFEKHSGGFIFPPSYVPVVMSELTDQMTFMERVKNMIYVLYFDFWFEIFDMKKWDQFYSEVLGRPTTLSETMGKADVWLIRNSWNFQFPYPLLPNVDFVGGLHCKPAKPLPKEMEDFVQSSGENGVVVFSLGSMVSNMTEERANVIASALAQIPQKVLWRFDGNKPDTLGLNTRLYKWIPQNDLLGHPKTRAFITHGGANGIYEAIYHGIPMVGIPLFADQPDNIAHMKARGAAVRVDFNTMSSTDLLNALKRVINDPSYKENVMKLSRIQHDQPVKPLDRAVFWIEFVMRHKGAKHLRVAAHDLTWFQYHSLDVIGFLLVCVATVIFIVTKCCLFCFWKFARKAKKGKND", "assay": "UGT2B7-catalyzed naloxone 3-β-D-glucuronidation in human liver microsomes", "assay_type": "in vitro ADME", "details": "at 50 µM", "method": "The inhibitory effects of EAM-2201 on UGT1A1, UGT1A3, UGT1A4, UGT1A6, UGT1A9 and UGT2B7 were evaluated using LC-MS/MS and the cocktail of UGT substrates as previously described. Each incubation mixture was prepared in a final volume of 100 µL as follows: ultrapooled human liver microsomes (0.2 mg/mL), 5 mM UDPGA, 10 mM magnesium chloride, alamethicin (25 µg/mL), 50 mM Tris buffer (pH 7.4), various concentrations of EAM-2201 in DMSO (final concentrations of 1–50 µM, 0.5% DMSO) and the UGT enzyme-specific substrates of two cocktail sets (set A: 0.5 µM SN-38, 2 µM chenodeoxycholic acid and 0.5 µM trifluoperazine; set B: 1 µM N-acetylserotonin, 0.2 µM mycophenolic acid and 1 µM naloxone, acetonitrile content, 0.5%). […] Supernatant from sets A and B (50 µL of each) was mixed and aliquots (5 µL) were analyzed by LC-MS/MS. […]\nThe metabolites formed from the six UGT cocktail substrates were simultaneously measured using LC-MS/MS [41]. […] Each metabolite was quantified via SRM in the negative ion mode: chenodeoxycholic acid 24-acyl-β-glucuronide, 567.2 > 391.0; mycophenolic acid glucuronide, 495.2 > 318.9; and propofol glucuronide (IS), 353.3 > 177.1; and in the positive ion mode: SN-38 glucuronide, 569.0 > 393.0; trifluoperazine glucuronide, 584.2 > 408.1; N-acetylserotonin-β-D-glucuronide, 395.2 > 219.0; naloxone 3-β-D-glucuronide, 504.0 > 310.0; and meloxicam (IS), 352.0 > 115.1. […]", "data": [{"molecule": "CCc1ccc(C(=O)c2cn(CCCCCF)c3ccccc23)c2ccccc12", "note": "[EAM-2201, (4-ethyl-1-naphthalenyl)[1-(5-fluoropentyl)-1H-indol-3-yl]-methanone]", "values": [{"measurement": "inhibition of UGT2B7-catalyzed naloxone 3-β-D-glucuronidation", "value": "negligibly inhibited"}]}]}
